Read-outs that look alike come from different tables or passages of the source.
How the values were obtained:
[1] = Everted gut sac transport of REG, mucosal to serosal; assay type: in vitro ADME, rat; conditions: for Increase in drug permeability in presence of inhibitor: everted gut sac
Description: The everted sac method was used as previously described ([11]). All animal experiments were approved by the local ethics committee of Shahid Beheshti University of Medical Sciences (Tehran, Iran). Male Wistar rats weighing 230 and 250 g were fasted for 24 h but were allowed free access to water. Under deep anesthesia, the jejunum of the rat intestines (approximately 10 cm) was quickly excised, and the underlying mesenterium was removed. The segment was washed several times with normal saline solution and placed immediately into the oxygenated Krebs buffer (composition: NaCl 118 mM, NaHCO3 25 mM, KCl 4.7 mM, CaCl22.5 mM, MgSO4 1.2 mM, KH2PO4 1.2 mM, and d-glucose 11 mM). The intestine was carefully everted on a glass rod (3.0 mm diameter), filled with 2 mL of Krebs buffer, and divided into sacs approximately 4.5 cm in length with silk suture. The sacs were placed in the oxygenated buffer solution (pH 6.8). The solution was maintained at 37 °C with 95% O2 and 5% CO2 throughout the experiment.
Sacs were placed in 25 mL of oxygenated buffer solutions (pH 6.8) containing different concentrations of REG (10 to 100 µM) with or without the P-gp inhibitors at the typically used inhibitory concentrations: verapamil (100 µM), valspodar (5 µM), or ketoconazole (10 µM) ([12]-[14]). At various time points, 10, 20, 35, 45, 60, and 90 min, sacs were removed, blotted dry, and the serosal contents were collected. REG serosal concentration was determined by a validated HPLC method (Section 2.4). Each sac was weighed before and after the experiment to calculate the fluid volume inside the sac.
(§1) HPLC was conducted using a system consisting of a Wellchrom K-1001 HPLC pump and a K-2700 diode array UV/VIS spectrophotometric detector (Knauer, Germany). The analyses were conducted at ambient temperature on a Perfect Sil RP-18 (150 mm × 4.6 mm i.d., Merck). The optimal mobile phase for REG was a mixture of acetonitrile and phosphate buffer 0.02 M (60:40 V/V) delivered at a flow rate of 1 mL/min. The detection wavelength was set at 242 nm and the injection volume was 100 μL. The column temperature was maintained at room temperature. The calibration curves were linear over the concentration range of 100-1000 ng/mL (R^2 > 0.994). The intra-day and inter-day coefficients of the variation (CV) were all less than 5%.
(§2) Apparent permeability coefficients (Papp) of REG were calculated in everted gut sac and Caco-2 cell line according to the below equation ([19]): […]
(§3) Where the dQ/dt (ng/min) is drug permeation rate, A (cm^2) the cross sectional area, and C0 (ng/mL) the initial concentration of REG in the donor chamber. In Caco-2 cell, the Papp of REG was calculated in both apical to basolateral (papp.AB), and basolateral to apical (papp.BA) directions. The efflux ratio (ER) of the drug in Caco-2 cell was assessed by calculating the ratio of papp.BA to papp.AB (papp.BA/papp.AB). TEER was calculated based on the following equation ([16]): […]

[2] = Bi-directional transport of REG across Caco-2 cell monolayers; assay type: in vitro ADME; conditions: human, Caco-2, mean ± SD, n = 3
Description: (§4) Caco-2 cells (purchased from Pasteur Institute of Iran) were grown on 75 cm^2 plastic culture flasks, containing 15% (V/V) fetal bovine serum (FBS), 50% RPMI 1640, 34% DMEM and 1% (V/V) penicillin–streptomycin at 37 °C in a 95% humidified air with 5% CO2. The growth medium was changed every other day, and the cells were trypsinized using Trypsin-EDTA every 4 days for passage. The cells with passage numbers of 35-40 were used for the drug transport experiments.
(§5) When reaching 80–90% confluency, for transport study, the cells were seeded on polycarbonate filter inserts (with pore size of 0.4 µm, 1.13 cm^2 surface area, Korea) at a density of 5 × 10^4 cells/cm^2 and grown for 21 days to allow full expression of P-gp and appropriate tight junctions. To evaluate the integrity of cellular monolayer, the transepithelial electrical resistance (TEER) was measured and transport studies were conducted when the TEER values were more than 300-400 Ωcm^2. Before conducting drug transport experiments, the cells were washed twice with HBSS containing 25 mM HEPES (pH 7.4, 37 °C). Then, monolayers were pre-incubated at 37 °C for 30 min, and TEER values were measured. HBSS/HEPES buffer on both sides of the cell monolayers was then removed by aspiration and replaced with REG solution with various concentrations (20, 40 and 60 µM) on one side of the cell layer, apical (A) or basolateral (B), and fresh blank buffer on the other side. The volume of the buffer on the apical and basolateral side of the cell layer was 0.3 mL and 0.7 mL, respectively. The monolayers were incubated at 37 °C, placed in a shaker and shaken at 50 rpm during the transport process. The samples were taken from the receptor chamber (apical side or basolateral side in the case of B-A and A-B transport studies, respectively) at 30, 60, 90, 120 and 180 min, and then replaced with the same volume of the pre-warmed fresh buffer. Each experiment was repeated three times and REG concentration was determined by the HPLC system. The inhibition of REG efflux across Caco-2 cells was examined in the presence of two common P-gp inhibitors: verapamil (100 μM) and valspodar (5 μM).
as §1, §2, §3

Caco-2 cell monolayers [3] = experiment: as above; assay type: in vitro ADME; conditions: Caco-2 results, ER and effect of P-gp inhibitors
Description: as §4, §5, §1, §2, §3

P-gp = experiment: as above; assay type: in vitro ADME; conditions: human, Caco-2, mean ± SD, n = 3; for efflux ratio at 180 min, 40 µM: read-out: ER (efflux ratio, papp.BA/papp.AB)
Description: as §4, §5, §1, §2, §3

Caco-2 cell monolayers [4] = experiment: Lucifer yellow passage across Caco-2 monolayers (monolayer integrity); assay type: in vitro ADME; conditions: 100 µg/mL, 37 °C, all the experiments
Description: To determine the cell monolayers integrity, the TEER values and percent of Lucifer yellow transport across the cell monolayers were measured. The TEER was measured using an EVOM 2 Epithelial Voltohmmeter (World Precision Instrument, Sarasota, USA). The transport studies were conducted when the TEER values were more than 300-400 Ωcm^2. A reduction in the TEER recorded across a monolayer indicates the dilation of tight junctions or a disruption of the monolayer ([16], [17]). Lucifer yellow is a small hydrophilic fluorescent molecule that is easily detectable by spectrophotofluorometer (485 nm excitation and 535 nm emission). The paracellular transfer of Lucifer yellow was determined and served as an additional marker for the epithelial cell tightness. In each set of experiments, Lucifer yellow was added (100 µg/mL) to the inserts and its passage was evaluated at 37 °C ([18]).
Where TEERmono is the cell monolayer and porous membrane resistance, TEERblank the porous membrane resistance, and A the porous membrane surface area. The Lucifer yellow transport was calculated according to the following equation ([18]):
Lucifer Yellow Passage% = [(Ft − Fb)/(F0 − Fb)] × 100
Ft is the fluorescence intensity of Lucifer yellow across the monolayer, F0 the initial fluorescence intensity of Lucifer yellow on the donor side, and Fb the fluorescence intensity of the blank sample (HBSS/HEPES buffer alone).

[5] = pH 7.4, with valspodar 5 µM, REG 40 µM + valspodar 5 µM
[6] = pH 7.4, with verapamil 100 µM, REG 40 µM + verapamil 100 µM

Which results are given for CCOc1cc(CC(=O)N[C@@H](CC(C)C)c2ccccc2N2CCCCC2)ccc1C(=O)O [REG, Repaglinide]?
Increase in drug permeability in presence of inhibitor ([1]; REG 20 µM plus ketoconazole 10 µM versus control): 3 fold; Increase in drug permeability in presence of inhibitor ([1]; REG 20 µM plus valspodar 5 µM versus control): 2.6 fold; Increase in drug permeability in presence of inhibitor ([1]; REG 20 µM plus verapamil 100 µM versus control): 3 fold; Apparent permeability coefficient (Papp) across everted gut sacs ([1]; REG 40 µM, mucosal to serosal, rat jejunum, pH 6.8, mean ± SD, n = 3): 1.23 ± 0.19 × 10^-5 cm/s; Apparent permeability coefficient (Papp) across everted gut sacs ([1]; REG 100 µM, mucosal to serosal, rat jejunum, pH 6.8, mean ± SD, n = 3): 3.29 ± 0.58 × 10^-5 cm/s; Papp at 90 min, 40 µM ([1]; male, Wistar, rat, pH 6.8, drug concentration 40 µM, read-out: Papp in everted gut sacs (abstract)): 12.3 ×10⁻⁶ cm/s; Papp at 90 min, 100 µM ([1]; male, Wistar, rat, pH 6.8, drug concentration 100 µM, read-out: Papp in everted gut sacs (abstract)): 32.9 ×10⁻⁶ cm/s; Papp at 90 min, 10 µM ([1]; male, Wistar, REG 10 µM, mucosal to serosal, rat jejunum, pH 6.8, mean ± SD, n = 3, read-out: Apparent permeability coefficient (Papp) across everted gut sacs): 12.1 ± 1.4 ×10⁻⁶ cm/s; Papp at 90 min, 20 µM ([1]; male, Wistar, REG 20 µM, mucosal to serosal, rat jejunum, pH 6.8, mean ± SD, n = 3, read-out: Apparent permeability coefficient (Papp) across everted gut sacs): 11.6 ± 0.9 ×10⁻⁶ cm/s; efflux ratio at 180 min, 20 µM ([2]; Caco-2, pH 7.4, REG 20 µM, read-out: ER (efflux ratio, papp.BA/papp.AB)): 0.64 ± 0.02; efflux ratio at 180 min, 40 µM ([2]; Caco-2, pH 7.4, REG 40 µM, read-out: ER (efflux ratio, papp.BA/papp.AB)): 0.65 ± 0.05; efflux ratio at 180 min, 60 µM ([2]; Caco-2, pH 7.4, REG 60 µM, read-out: ER (efflux ratio, papp.BA/papp.AB)): 0.8 ± 0.07; Papp A→B at 180 min, 20 µM ([2]; pH 7.4, REG 20 µM): 16.7 ± 0.4 ×10⁻⁶ cm/s; Papp B→A at 180 min, 20 µM ([2]; pH 7.4, REG 20 µM): 10.7 ×10⁻⁶ cm/s; Papp A→B at 180 min, 40 µM ([2]; pH 7.4, REG 40 µM): 18.4 ± 1.2 ×10⁻⁶ cm/s; Papp B→A at 180 min, 40 µM ([2]; pH 7.4, REG 40 µM): 11.9 ×10⁻⁶ cm/s; Papp A→B at 180 min, 60 µM ([2]; pH 7.4, REG 60 µM): 18.3 ± 0.4 ×10⁻⁶ cm/s; Papp B→A at 180 min, 60 µM ([2]; pH 7.4, REG 60 µM): 14.6 ×10⁻⁶ cm/s; P-gp substrate recognition (FDA guidance criteria) (Caco-2 cell monolayers [3]): cannot be considered as a distinct P-gp substrate; efflux ratio at 180 min, 40 µM (P-gp; Caco-2, pH 7.4, with valspodar 5 µM, REG 40 µM + valspodar 5 µM): 0.68 ± 0.07; efflux ratio at 180 min, 40 µM (P-gp; Caco-2, pH 7.4, with verapamil 100 µM, REG 40 µM + verapamil 100 µM): 0.61 ± 0.09; Papp A→B at 180 min, 40 µM (P-gp; [5]): 16.4 ± 0.5 ×10⁻⁶ cm/s; Papp B→A at 180 min, 40 µM (P-gp; [5]): 11.2 ×10⁻⁶ cm/s; Papp A→B at 180 min, 40 µM (P-gp; [6]): 19.6 ± 2.7 ×10⁻⁶ cm/s; Papp B→A at 180 min, 40 µM (P-gp; [6]): 11.8 ± 1.2 ×10⁻⁶ cm/s

For Lucifer yellow, which “Transport (passage) of Lucifer yellow across the monolayer” value (Caco-2 cell monolayers [4]) is on record?
The value was < 0.3%.
